Read-outs that look alike come from different tables or passages of the source. Starred links: 1 amine or outer side, 2 acyl side, 3 side chain; linkers in the order of their positions; H or OH if unused. Non-standard residues stand in square brackets, D forms with d. Residues, ends and D or L forms follow the SMILES beside them. Groups on a side chain read outwards from the residue. No end group written: not given here. *: point of attachment. C18 diacid = O=C(O)CCCCCCCCCCCCCCCCC(=O)*; αMePhe(2-F) = C[C@](N)(Cc1ccccc1F)C(=O)O; γGlu = O=C(O)[C@H](CCC(=O)[*:2])N[*:1]; αMe4Pal = C[C@](N)(Cc1ccncc1)C(=O)O; αMeY = C[C@](N)(Cc1ccc(O)cc1)C(=O)O; Hyp = O=C(O)[C@@H]1C[C@@H](O)CN1; αMeF = C[C@](N)(Cc1ccccc1)C(=O)O; 4Pal = N[C@@H](Cc1ccncc1)C(=O)O; αMeL = CC(C)C[C@](C)(N)C(=O)O; αMeS = C[C@](N)(CO)C(=O)O; Orn = NCCC[C@H](N)C(=O)O; AEEA = NCCOCCOCC(=O)O; Aib = CC(C)(N)C(=O)O
Key:
Format in all cases: cell-based
hGIPR [1] = biological target: T1, hGIPR (Homo sapiens, UniProt P48546); assay: Functional cAMP activity in the presence of 1% HSA; conditions: read-out: cAMP Rel EC50, hGIPR
T1 sequence (P48546 22-466): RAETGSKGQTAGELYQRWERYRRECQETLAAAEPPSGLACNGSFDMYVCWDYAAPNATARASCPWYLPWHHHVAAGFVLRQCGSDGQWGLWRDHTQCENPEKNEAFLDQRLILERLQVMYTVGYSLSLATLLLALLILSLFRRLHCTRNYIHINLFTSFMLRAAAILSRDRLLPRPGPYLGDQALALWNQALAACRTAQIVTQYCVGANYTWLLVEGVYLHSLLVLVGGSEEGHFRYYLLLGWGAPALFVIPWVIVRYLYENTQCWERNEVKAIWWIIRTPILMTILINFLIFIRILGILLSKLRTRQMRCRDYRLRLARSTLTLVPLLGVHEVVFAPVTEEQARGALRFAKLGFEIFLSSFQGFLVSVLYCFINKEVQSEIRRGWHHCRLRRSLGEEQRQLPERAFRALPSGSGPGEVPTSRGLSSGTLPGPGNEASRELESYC

hGLP-1R [2] = biological target: T2, hGLP-1R (Homo sapiens, UniProt P43220); assay: Functional cAMP activity in the presence of 1% HSA; conditions: read-out: cAMP Rel EC50, hGLP-1R
human GcgR = human GcgR (Homo sapiens, UniProt P47871); assay: Functional cAMP activity in the presence of 1% HSA; conditions: read-out: cAMP Rel EC50, hGcgR
hGIPR [3] = biological target: T1, hGIPR; assay: Functional cAMP activation in the presence of 0.1% casein (no HSA); conditions: read-out: Relative cAMP EC50, hGIPR;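 on Relative cAMP EC50, hGIPR: intracellular cAMP rise after 30 min at 37 °C read by HTRF against a standard curve, scaled between buffer alone (0%) and top control ligand concentration (100%), four-parameter fit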;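 on Relative cAMP EC50, hGLP-1R: intracellular cAMP rise after 30 min at 37 °C read by HTRF, normalized between buffer only (0%) and maximal control ligand (100%), four-parameter variable-slope fit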;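 on Relative cAMP EC50, hGcgR: intracellular cAMP rise after 30 min at 37 °C, read by HTRF against a cAMP standard curve, scaled from buffer only (0%) to maximal control ligand response (100%)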
hGLP-1R [4] = biological target: T2, hGLP-1R; assay: as above; conditions: read-out: Relative cAMP EC50, hGLP-1R
hGcgR = hGcgR (Homo sapiens, UniProt P47871); assay: as above; conditions: read-out: Relative cAMP EC50, hGcgR;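 further: intracellular cAMP rise after 30 min at 37 °C, read by HTRF against a cAMP standard curve, scaled from buffer only (0%) to maximal control ligand response (100%)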
[5] = in the presence of 0.1% casein (no HSA), geometric mean

T2 sequence (P43220 24-463): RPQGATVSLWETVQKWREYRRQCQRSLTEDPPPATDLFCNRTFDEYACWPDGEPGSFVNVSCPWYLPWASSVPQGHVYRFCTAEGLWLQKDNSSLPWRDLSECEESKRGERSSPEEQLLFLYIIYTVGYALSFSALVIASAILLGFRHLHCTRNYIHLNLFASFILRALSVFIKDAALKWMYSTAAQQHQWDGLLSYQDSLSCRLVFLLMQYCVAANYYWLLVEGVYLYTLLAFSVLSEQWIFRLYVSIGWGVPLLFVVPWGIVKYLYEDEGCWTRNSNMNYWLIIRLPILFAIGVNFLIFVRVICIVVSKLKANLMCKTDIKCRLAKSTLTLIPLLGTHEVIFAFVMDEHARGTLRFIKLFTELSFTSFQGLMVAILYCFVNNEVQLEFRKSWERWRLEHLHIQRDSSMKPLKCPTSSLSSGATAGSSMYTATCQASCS
Sequence of human GcgR (P47871 26-477): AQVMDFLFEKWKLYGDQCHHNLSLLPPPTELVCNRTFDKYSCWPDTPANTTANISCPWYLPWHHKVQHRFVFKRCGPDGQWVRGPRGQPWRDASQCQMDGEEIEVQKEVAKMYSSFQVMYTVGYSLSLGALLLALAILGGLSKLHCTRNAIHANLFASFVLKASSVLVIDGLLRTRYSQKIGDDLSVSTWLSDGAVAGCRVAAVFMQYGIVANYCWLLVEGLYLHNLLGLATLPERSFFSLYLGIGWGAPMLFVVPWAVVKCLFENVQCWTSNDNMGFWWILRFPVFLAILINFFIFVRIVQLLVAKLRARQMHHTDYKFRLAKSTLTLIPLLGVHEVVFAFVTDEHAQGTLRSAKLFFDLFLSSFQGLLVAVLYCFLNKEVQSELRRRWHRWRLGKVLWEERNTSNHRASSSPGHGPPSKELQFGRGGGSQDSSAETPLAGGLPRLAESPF
Sequence of hGcgR (P47871 26-477): as above

Row | Molecule | EC50 (hGIPR [1]) | EC50 (hGLP-1R [2]) | EC50 (human GcgR) | EC50 (hGIPR [3]) | EC50 (hGLP-1R [4]) | EC50 (hGcgR) | EC50 (hGIPR [3]; [5]) | EC50 (hGLP-1R [4]; [5]) | EC50 (hGcgR; [5])
1 | CC[C@H](C)[C@H](NC(=O)[C@H](CO)NC(=O)[C@H](Cc1ccc(O)cc1)NC(=O)[C@H](CC(=O)O)NC(=O)[C@H](CO)NC(=O)[C@@H](NC(=O)[C@](C)(Cc1ccccc1F)NC(=O)[C@@H](NC(=O)CNC(=O)[C@H](CCC(N)=O)NC(=O)C(C)(C)NC(=O)[C@@H](N)Cc1ccc(O)cc1)[C@@H](C)O)[C@@H](C)O)C(=O)N[C@@H](CC(C)C)C(=O)N[C@@H](CC(C)C)C(=O)N[C@@H](CC(=O)O)C(=O)N[C@@H](CCCN)C(=O)N[C@@H](CCCCNC(=O)CC[C@H](NC(=O)CC[C@H](NC(=O)CCCCCCCCCCCCCCCCC(=O)O)C(=O)O)C(=O)O)C(=O)N[C@@H](C)C(=O)N[C@@H](CCC(N)=O)C(=O)NC(C)(C)C(=O)N[C@@H](C)C(=O)N[C@@H](Cc1ccccc1)C(=O)N[C@H](C(=O)N[C@H](CCC(=O)O)C(=O)N[C@@H](Cc1ccc(O)cc1)C(=O)N[C@@H](CC(C)C)C(=O)N[C@@H](CC(C)C)C(=O)N[C@@H](CCC(=O)O)C(=O)NCC(=O)NCC(=O)N1CCC[C@H]1C(=O)N[C@@H](CO)C(=O)N[C@@H](CO)C(=O)NCC(=O)N[C@@H](C)C(=O)N1CCC[C@H]1C(=O)N1CCC[C@H]1C(=O)N1CCC[C@H]1C(=O)N[C@@H](CO)C(N)=O)[C@@H](C)CC [Example 428] | 4.55 nM | 38.2 nM | 536 nM | 0.01 nM | 0.207 nM | 2.35 nM |  |  | 
2 | Y[Aib]QGTFTSD[4Pal]S[Orn][αMeL]LD[Orn]K([AEEA-γGlu-C18 diacid])AQ[Aib]AFIE[αMeY]LLEGGPSSGAPPPSGS-NH2 [Example 933] | 35.1 nM | 557 nM | 1530 nM |  |  |  | 0.259 nM | 2.32 nM | 5.51 nM
3 | H-Y[Aib]QGTFTSD[4Pal]SQ[αMeL]LD[Orn]K([γGlu-γGlu-C18 diacid])AQ[αMe4Pal]AFIEYLIA[Aib]GPSSGAPPPSGSEE-NH2 [Example 1091] | 5.79 nM | 145 nM | 550 nM |  |  |  | 0.0592 nM | 1.23 nM | 4.67 nM
4 | H-Y[Aib]QGTFTSD[4Pal]SQ[αMeL]LD[Orn]K([AEEA-γGlu-γGlu-C18 diacid])AQ[αMe4Pal]AFIEYLIE[dA]GPSSGEPPPSGS-NH2 [Example 1018] | 14.1 nM | 163 nM | 568 nM |  |  |  | 0.51 nM | 1.69 nM | 5.29 nM
5 | H-Y[Aib]QGTFTSDFS[Orn][αMeL]LDKK([AEEA-γGlu-C18 diacid])AQ[Aib]AFIEYLLEGGPSSGAPP[Hyp]GGS-NH2 [Example 237] | 30.9 nM | 291 nM | 441 nM |  |  |  | 0.228 nM | 3.4 nM | 3.77 nM
6 | CC[C@H](C)[C@H](NC(=O)[C@H](Cc1ccccc1)NC(=O)[C@H](C)NC(=O)C(C)(C)NC(=O)[C@H](CCC(N)=O)NC(=O)[C@H](C)NC(=O)[C@H](CCCCNC(=O)COCCOCCNC(=O)COCCOCCNC(=O)CC[C@H](NC(=O)CCCCCCCCCCCCCCCCC(=O)O)C(=O)O)NC(=O)[C@H](CCCCN)NC(=O)[C@H](CC(=O)O)NC(=O)[C@H](CC(C)C)NC(=O)[C@](C)(CC(C)C)NC(=O)[C@H](CCCCN)NC(=O)[C@H](CO)NC(=O)[C@H](Cc1ccccc1)NC(=O)[C@H](CC(=O)O)NC(=O)[C@H](CO)NC(=O)[C@@H](NC(=O)[C@H](Cc1ccccc1)NC(=O)[C@@H](NC(=O)CNC(=O)[C@H](CCC(N)=O)NC(=O)C(C)(C)NC(=O)[C@@H](N)Cc1ccc(O)cc1)[C@@H](C)O)[C@@H](C)O)C(=O)N[C@@H](CCC(=O)O)C(=O)N[C@@H](Cc1ccc(O)cc1)C(=O)N[C@@H](CC(C)C)C(=O)N[C@@H](CC(C)C)C(=O)N[C@@H](C)C(=O)NCC(=O)NCC(=O)N1CCC[C@H]1C(=O)N[C@@H](CO)C(=O)N[C@@H](CO)C(=O)NCC(=O)N[C@@H](CCC(=O)O)C(=O)N1CCC[C@H]1C(=O)N1CCC[C@H]1C(=O)N1CCC[C@H]1C(=O)N[C@@H](CO)C(=O)N[C@@H](CCC(=O)O)C(=O)NCC(N)=O [Example 25] | 19.8 nM | 520 nM | 939 nM |  |  |  | 0.128 nM | 3.34 nM | 6.8 nM
7 | H-Y[Aib]QGT[αMePhe(2-F)]TSD[4Pal]SI[αMeL]LD[Orn]K([γGlu-γGlu-C18 diacid])AQ[αMe4Pal][Orn]FI[dE][αMeY]LIEGGPSSGEPPPEGTE-NH2 [Example 687] | 0.595 nM | 21.3 nM | 157 nM | 0.00903 nM | 0.277 nM | 2.41 nM |  |  | 
8 | H-Y[Aib]QGTFTSD[4Pal]SQ[αMeL]LD[Orn]K([AEEA-γGlu-C18 diacid])AQ[αMe4Pal]QFIE[αMeY]LIA[Aib]GPSSGEPPPSGSEE-NH2 [Example 1100] | 9.04 nM | 77.2 nM | 577 nM |  |  |  | 0.0694 nM | 0.514 nM | 5.28 nM
9 | H-Y[Aib]QGTFTSD[4Pal]SQ[αMeL]LDKK([AEEA-γGlu-C18 diacid])AQ[Aib]AFIEYLLE[dA]GPSS[Aib]APPPSGT-NH2 [Example 824] | 28.9 nM | 343 nM | 1110 nM |  |  |  | 0.123 nM | 2.43 nM | 7.92 nM
10 | CC[C@H](C)[C@H](NC(=O)[C@H](Cc1ccccc1)NC(=O)[C@H](C)NC(=O)C(C)(C)NC(=O)[C@H](CCC(N)=O)NC(=O)[C@H](C)NC(=O)[C@H](CCCCNC(=O)COCCOCCNC(=O)COCCOCCNC(=O)CC[C@H](NC(=O)CCCCCCCCCCCCCCCCC(=O)O)C(=O)O)NC(=O)[C@H](CCCCN)NC(=O)[C@H](CC(=O)O)NC(=O)[C@H](CC(C)C)NC(=O)[C@H](CC(C)C)NC(=O)[C@@H](NC(=O)[C@](C)(CO)NC(=O)[C@H](Cc1ccc(O)cc1)NC(=O)[C@H](CC(=O)O)NC(=O)[C@H](CO)NC(=O)[C@@H](NC(=O)[C@](C)(Cc1ccccc1F)NC(=O)[C@@H](NC(=O)CNC(=O)[C@H](CCC(N)=O)NC(=O)C(C)(C)NC(=O)[C@@H](N)Cc1ccc(O)cc1)[C@@H](C)O)[C@@H](C)O)[C@@H](C)CC)C(=O)N[C@@H](CCC(=O)O)C(=O)N[C@@H](Cc1ccc(O)cc1)C(=O)N[C@@H](CC(C)C)C(=O)N[C@@H](CCC(=O)O)C(=O)N[C@@H](CCC(=O)O)C(=O)NCC(=O)NCC(=O)N1CCC[C@H]1C(=O)N[C@@H](CO)C(=O)N[C@@H](CO)C(=O)NCC(=O)N[C@@H](CCC(=O)O)C(=O)N1CCC[C@H]1C(=O)N1CCC[C@H]1C(=O)N1CCC[C@H]1C(=O)N[C@@H](CCC(=O)O)C(N)=O [Example 469] (H-Y[Aib]QGT[αMePhe(2-F)]TSDY[αMeS]ILLDKK([AEEA-AEEA-γGlu-C18 diacid])AQ[Aib]AFIEYLEEGGPSSGEPPPE-NH2) | 4.24 nM | 61.7 nM | 155 nM | 0.031 nM | 0.562 nM | 1.34 nM |  |  | 
11 | CC[C@H](C)[C@H](NC(=O)[C@H](Cc1ccccc1)NC(=O)[C@H](C)NC(=O)C(C)(C)NC(=O)[C@H](CCC(N)=O)NC(=O)[C@H](C)NC(=O)[C@H](CCCCNC(=O)CC[C@H](NC(=O)CC[C@H](NC(=O)CCCCCCCCCCCCCCCCC(=O)O)C(=O)O)C(=O)O)NC(=O)[C@H](CCCCN)NC(=O)[C@H](CC(=O)O)NC(=O)[C@H](CC(C)C)NC(=O)[C@](C)(CC(C)C)NC(=O)[C@@H](NC(=O)[C@H](CO)NC(=O)[C@H](Cc1ccncc1)NC(=O)[C@H](CC(=O)O)NC(=O)[C@H](CO)NC(=O)[C@@H](NC(=O)[C@](C)(Cc1ccccc1F)NC(=O)[C@@H](NC(=O)CNC(=O)[C@H](CCC(N)=O)NC(=O)C(C)(C)NC(=O)[C@@H](N)Cc1ccc(O)cc1)[C@@H](C)O)[C@@H](C)O)[C@@H](C)CC)C(=O)N[C@@H](CCC(=O)O)C(=O)N[C@@H](Cc1ccc(O)cc1)C(=O)N[C@@H](CC(C)C)C(=O)N[C@@H](CCC(=O)O)C(=O)N[C@@H](CCC(=O)O)C(=O)NCC(=O)NCC(=O)N1CCC[C@H]1C(=O)N[C@@H](CO)C(=O)N[C@@H](CO)C(=O)NCC(=O)N[C@@H](C)C(=O)N1CCC[C@H]1C(=O)N1CCC[C@H]1C(=O)N1CCC[C@H]1C(=O)N[C@@H](CO)C(N)=O [Example 440] (H-Y[Aib]QGT[αMePhe(2-F)]TSD[4Pal]SI[αMeL]LDKK([γGlu-γGlu-C18 diacid])AQ[Aib]AFIEYLEEGGPSSGAPPPS-NH2) | 1.81 nM | 27.4 nM | 830 nM | 0.0226 nM | 0.467 nM | 7.14 nM |  |  | 
12 | Y[Aib]QGT[αMeF]TSD[4Pal][αMeS]I[αMeL]LD[Orn]K([AEEA-γGlu-C18 diacid])AQ[αMe4Pal]EFI[dE][αMeY]LIEGGPSSGAPPPSGGGE-NH2 [Example 1168] | 0.999 nM | 65.4 nM | 364 nM |  |  |  | 0.00839 nM | 0.422 nM | 2.63 nM
13 | H-Y[Aib]QGT[αMePhe(2-F)]TSD[4Pal]SI[αMeL]LD[Orn]K([AEEA-γGlu-C18 diacid])AQ[αMe4Pal][Orn]FI[dE][αMeY]LIEGGPSSGEPPPETE-NH2 [Example 678] | 0.929 nM | 22.1 nM | 245 nM | 0.0132 nM | 0.251 nM | 2.28 nM |  |  | 
